In ChEMBL document CHEMBL3301562, “MMV Box screening against Plasmodium falciparum protein kinases and aminoacyl tRNA synthetases” one finds IC50 data, which are given here for 14 compounds.

What all share (format): functional
Assay [1] deals with T1, Putative uncharacterized protein pk7 (Plasmodium falciparum, UniProt O96214).
T1 sequence (O96214 whole entry): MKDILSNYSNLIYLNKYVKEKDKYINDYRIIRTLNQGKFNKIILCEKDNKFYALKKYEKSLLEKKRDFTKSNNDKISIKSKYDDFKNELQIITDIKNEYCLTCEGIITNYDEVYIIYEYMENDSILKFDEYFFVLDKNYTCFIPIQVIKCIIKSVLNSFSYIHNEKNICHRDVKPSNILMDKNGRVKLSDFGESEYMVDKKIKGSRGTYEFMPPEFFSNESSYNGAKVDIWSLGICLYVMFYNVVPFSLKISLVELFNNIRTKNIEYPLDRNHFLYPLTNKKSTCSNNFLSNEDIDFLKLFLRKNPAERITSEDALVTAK
The assay is described as follows: Final concentrations were 1 uM ATP, 2 mM DTT, 20 mM MgCl2, 2 mM MnCl2, 0.01% BSA, and 6 ug/ml PK7, in a buffer of 20 mM Tris-HCl (pH 7.5). The enzyme itself was the only substrate present (since autophosphorylation occurs); 100 uM 1NA-PP1 was used as a control inhibitor. Incubation time was 3 hours.

Another assay has as its target Lysine--tRNA ligase (Plasmodium falciparum (isolate 3D7), UniProt Q8IDJ8). The assay can be described thus: MMV: KRS recombinant Plasmodium falciparum Lysyl-tRNA-synthetase, assay with yeast tRNA, ATP, and lysine and 3 uM MMV malaria box compound, assay read out with kinase glo as % inhibition.
A further assay deals with T2, Proline--tRNA ligase (Plasmodium falciparum (isolate 3D7), UniProt Q8I5R7).
T2 sequence (Q8I5R7 whole entry): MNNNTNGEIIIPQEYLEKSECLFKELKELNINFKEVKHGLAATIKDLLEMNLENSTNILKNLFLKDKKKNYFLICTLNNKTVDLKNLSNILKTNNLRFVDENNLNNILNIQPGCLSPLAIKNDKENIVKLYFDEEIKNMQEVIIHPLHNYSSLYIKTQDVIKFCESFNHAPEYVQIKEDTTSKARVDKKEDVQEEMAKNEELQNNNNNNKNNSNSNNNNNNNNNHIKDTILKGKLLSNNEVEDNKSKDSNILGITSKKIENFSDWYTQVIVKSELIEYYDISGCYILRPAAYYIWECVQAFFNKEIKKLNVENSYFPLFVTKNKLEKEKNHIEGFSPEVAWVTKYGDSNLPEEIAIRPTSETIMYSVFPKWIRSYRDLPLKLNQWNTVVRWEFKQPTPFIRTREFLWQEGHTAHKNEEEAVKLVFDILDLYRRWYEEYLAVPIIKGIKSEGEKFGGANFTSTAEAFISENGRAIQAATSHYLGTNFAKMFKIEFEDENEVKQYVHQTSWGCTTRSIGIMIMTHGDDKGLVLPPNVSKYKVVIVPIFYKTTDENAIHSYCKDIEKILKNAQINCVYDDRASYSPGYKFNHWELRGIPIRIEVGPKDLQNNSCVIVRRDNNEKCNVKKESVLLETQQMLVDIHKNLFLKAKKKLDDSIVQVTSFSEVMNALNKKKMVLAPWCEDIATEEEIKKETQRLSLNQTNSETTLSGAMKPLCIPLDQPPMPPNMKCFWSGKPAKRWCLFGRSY
The assay is described as follows: MMV: ProRS recombinant Plasmodium falciparum Prolyl-tRNA-synthetase, assay with yeast tRNA, ATP, and proline and 3 uM MMV malaria box compound, assay read out with kinase glo as % inhibition.

The target in assay [2] is T3, Cdk-related protein kinase 6 (Plasmodium falciparum, UniProt O77239).
T3 sequence (O77239 whole entry): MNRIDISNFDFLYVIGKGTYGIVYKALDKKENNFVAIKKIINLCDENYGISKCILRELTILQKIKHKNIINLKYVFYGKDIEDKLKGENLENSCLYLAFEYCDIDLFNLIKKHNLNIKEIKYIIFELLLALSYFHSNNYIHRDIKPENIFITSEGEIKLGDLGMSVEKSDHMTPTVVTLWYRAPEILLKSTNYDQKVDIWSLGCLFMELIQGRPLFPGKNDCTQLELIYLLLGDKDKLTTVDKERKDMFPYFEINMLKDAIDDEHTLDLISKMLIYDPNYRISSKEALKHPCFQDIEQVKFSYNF
The assay can be described thus: Final concentrations were 1.5 uM ATP, 5 mM MnCl2, and 15 ug/ml PK6 in a buffer of 100 mM Tris-HCl (pH 7.5). 50 ug/mL MBP was provided as the substrate; 10 uM staurosporine was used as a control inhibitor. Incubation time was 3 hours and 40 minutes.The catalytic activity of each kinase was considered proportional to ATP consumed, as determined from measurements of residual [ATP] with the luciferase-based reagent Kinase-Glo (Promega) following incubation. Luminescence (proportional to residual [ATP]) was measured on the plate readers FLx800 (BioTek Instruments, Winooski, VT, USA) and MicroBeta2.

Assay [3] deals with T4, Calcium-dependent protein kinase 4 (Plasmodium falciparum (isolate 3D7), UniProt Q8IBS5).
T4 sequence (Q8IBS5 whole entry): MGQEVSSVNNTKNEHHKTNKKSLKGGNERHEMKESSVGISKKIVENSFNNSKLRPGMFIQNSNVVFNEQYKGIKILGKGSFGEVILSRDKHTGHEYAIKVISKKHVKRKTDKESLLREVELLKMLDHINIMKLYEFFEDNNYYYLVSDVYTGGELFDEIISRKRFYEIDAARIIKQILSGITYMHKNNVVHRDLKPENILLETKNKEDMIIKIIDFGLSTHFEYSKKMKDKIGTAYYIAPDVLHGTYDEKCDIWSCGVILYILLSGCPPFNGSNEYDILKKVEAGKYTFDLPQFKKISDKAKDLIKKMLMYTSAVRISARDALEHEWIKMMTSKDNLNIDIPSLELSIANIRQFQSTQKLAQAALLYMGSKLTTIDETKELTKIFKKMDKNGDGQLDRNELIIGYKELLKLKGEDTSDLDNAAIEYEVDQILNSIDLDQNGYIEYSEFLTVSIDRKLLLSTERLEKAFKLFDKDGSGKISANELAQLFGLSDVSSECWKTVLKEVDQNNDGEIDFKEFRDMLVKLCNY
The assay can be described thus: MMV: CDPK4 Protein kinase inhibition assay using recombinant PfCDPK4, syntide2 peptide substrate, ATP and KinaseGlo to measure % inhibition at 1 uM MMV box compound.

In assay [4] the target is Calcium-dependent protein kinase 1 (Plasmodium falciparum, UniProt P62344). The assay can be described thus: MMV: CDPK1 Protein kinase inhibition assay using recombinant PfCDPK1, syntide 2 peptide substrate, ATP and KinaseGlo to measure % inhibition at 1 uM MMV box compound.
The target in assay [5] is T5, Mitogen-activated protein kinase (Plasmodium falciparum, UniProt Q25917).
T5 sequence (Q25917 whole entry): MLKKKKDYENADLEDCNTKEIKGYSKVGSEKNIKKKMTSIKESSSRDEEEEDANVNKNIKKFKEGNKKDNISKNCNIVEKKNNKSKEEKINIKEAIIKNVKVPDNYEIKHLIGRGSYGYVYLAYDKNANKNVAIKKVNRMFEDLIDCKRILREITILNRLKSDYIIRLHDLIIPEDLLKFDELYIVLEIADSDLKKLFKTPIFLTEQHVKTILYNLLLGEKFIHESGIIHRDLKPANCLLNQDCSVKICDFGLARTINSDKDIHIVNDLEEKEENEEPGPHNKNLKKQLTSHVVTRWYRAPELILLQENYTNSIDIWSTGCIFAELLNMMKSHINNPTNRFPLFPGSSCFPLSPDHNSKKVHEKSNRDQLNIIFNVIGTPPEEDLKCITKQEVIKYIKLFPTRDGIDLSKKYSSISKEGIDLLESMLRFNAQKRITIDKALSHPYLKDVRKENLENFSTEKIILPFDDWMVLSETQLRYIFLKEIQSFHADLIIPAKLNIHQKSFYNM
The assay is described as follows: Final concentrations were 1 uM ATP, 0.5 mM DTT, 1 mM MgCl2, 0.5 mg/mL BSA, and 10 ug/ml MAP2 in a buffer of 50 mM HEPES (pH 7.0). 0.5 mg/mL histone III-S served as the substrate (13); 100 uM AMP-PNP, an ATP analog, was used as a control inhibitor. Incubation time was 4 hours.

Lysine--tRNA ligase, sequence (Q8IDJ8 whole entry): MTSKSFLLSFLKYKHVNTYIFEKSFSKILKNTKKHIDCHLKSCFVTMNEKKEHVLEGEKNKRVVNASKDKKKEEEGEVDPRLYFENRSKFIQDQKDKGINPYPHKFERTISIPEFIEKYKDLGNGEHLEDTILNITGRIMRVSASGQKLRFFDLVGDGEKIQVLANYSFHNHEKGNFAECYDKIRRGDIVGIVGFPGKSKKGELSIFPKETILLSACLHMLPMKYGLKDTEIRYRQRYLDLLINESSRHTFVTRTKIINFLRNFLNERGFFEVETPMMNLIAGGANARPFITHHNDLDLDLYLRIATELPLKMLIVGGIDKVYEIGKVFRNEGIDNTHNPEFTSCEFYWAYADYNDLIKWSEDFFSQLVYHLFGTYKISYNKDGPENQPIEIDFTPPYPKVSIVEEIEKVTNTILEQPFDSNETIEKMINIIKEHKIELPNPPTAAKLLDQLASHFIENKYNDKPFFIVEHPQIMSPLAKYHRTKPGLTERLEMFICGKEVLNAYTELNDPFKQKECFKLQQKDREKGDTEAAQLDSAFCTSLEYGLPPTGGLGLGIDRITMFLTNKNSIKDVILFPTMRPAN
Calcium-dependent protein kinase 1, sequence (P62344 whole entry): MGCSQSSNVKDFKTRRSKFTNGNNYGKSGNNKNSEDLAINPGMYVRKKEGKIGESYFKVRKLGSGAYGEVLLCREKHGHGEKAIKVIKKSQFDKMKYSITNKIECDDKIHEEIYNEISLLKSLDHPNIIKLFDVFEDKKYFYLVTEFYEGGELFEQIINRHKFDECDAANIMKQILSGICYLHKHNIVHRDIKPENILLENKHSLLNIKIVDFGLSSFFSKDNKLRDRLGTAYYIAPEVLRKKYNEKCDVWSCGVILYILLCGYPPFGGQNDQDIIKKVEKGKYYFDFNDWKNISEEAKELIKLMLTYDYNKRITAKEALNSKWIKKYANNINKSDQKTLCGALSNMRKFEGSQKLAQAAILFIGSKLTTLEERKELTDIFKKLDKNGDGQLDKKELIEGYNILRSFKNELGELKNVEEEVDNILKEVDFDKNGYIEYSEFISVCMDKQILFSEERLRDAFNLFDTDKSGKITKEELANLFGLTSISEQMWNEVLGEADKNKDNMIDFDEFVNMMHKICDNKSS

Take `Cc1sc(NC(=O)c2ccco2)c(C(c2cccnc2)N2CCC(Cc3ccccc3)CC2)c1C` (stereo not drawn): the IC50 is > 1 µM in assay [1]; > 2.5 µM on Lysine--tRNA ligase; > 2.5 µM on Proline--tRNA ligase; > 1 µM in assay [2]; > 1 µM in assay [3]; > 1 µM in assay [4]. In assay [5], the IC50 was > 1 µM.
For `OC1=C2C(=Nc3ccccc3SC2c2ccccc2)c2ccccc21` (stereo not drawn), the IC50 in assay [1] is > 1 µM; at Lysine--tRNA ligase, > 2.5 µM; on Proline--tRNA ligase, > 2.5 µM; in assay [2] it was > 1 µM; in assay [3], > 1 µM; in assay [4] it was > 1 µM. The IC50 in assay [5] was > 1 µM.
For `COc1cc(C(=O)Nc2ccc(-c3nc4ccccc4[nH]3)cc2)cc(OC)c1OC`, the IC50 in assay [1] was > 1 µM; on Lysine--tRNA ligase it was > 2.5 µM; on Proline--tRNA ligase, > 2.5 µM; in assay [2], > 1 µM; in assay [3], > 1 µM; in assay [4] it was > 1 µM. The IC50 in assay [5] is > 1 µM.
Turning to `COC(=O)c1ccc(C2C3=C(O)CC(c4ccc(F)cc4)CC3=Nc3ccccc3N2C(=O)c2ccccc2)cc1` (stereo not drawn), the IC50 was > 1 µM in assay [1]; > 2.5 µM at Lysine--tRNA ligase; > 2.5 µM at Proline--tRNA ligase; > 1 µM in assay [2]; > 1 µM in assay [3]; > 1 µM in assay [4]. In assay [5], the IC50 was > 1 µM.
`CCOc1ccc(CN2CCN(CC(O)COc3ccc(OCC(O)CN4CCN(Cc5ccc(OCC)cc5)CC4)cc3)CC2)cc1` (stereo not drawn): the IC50 is > 1 µM in assay [1]; > 2.5 µM on Lysine--tRNA ligase; > 2.5 µM at Proline--tRNA ligase; > 1 µM in assay [2]; > 1 µM in assay [3]; > 1 µM in assay [4]. The IC50 in assay [5] is > 1 µM.
As for `CCCCNc1nc(NC(C)(C)C)nc(NC(C)(C)C)n1`, the IC50 in assay [1] is > 1 µM; at Lysine--tRNA ligase, > 2.5 µM; at Proline--tRNA ligase, > 2.5 µM; in assay [2], > 1 µM; in assay [3], > 1 µM; in assay [4] it was > 1 µM. For the same compound, the half-inhibitory concentration (IC50) in assay [5] is > 1 µM.
With `CC(=O)c1sc(NC(=O)Nc2ccc(C)cc2C)nc1C`, the IC50 in assay [1] was > 1 µM; at Lysine--tRNA ligase, > 2.5 µM; on Proline--tRNA ligase, > 2.5 µM; in assay [2], > 1 µM; in assay [3], > 1 µM; in assay [4], > 1 µM. Also, the IC50 in assay [5] was > 1 µM.
In the case of `O=C(Nc1ccc(-c2nc3ccccc3[nH]2)cc1)c1ccc(Cl)c(Cl)c1`, the half-maximal inhibitory concentration (IC50) in assay [1] was > 1 µM; at Lysine--tRNA ligase, > 2.5 µM; at Proline--tRNA ligase, > 2.5 µM; in assay [2], > 1 µM; in assay [3] it was > 1 µM; in assay [4], > 1 µM. In addition, the IC50 in assay [5] was > 1 µM.
On to `COc1cc(C(=O)ON=C(N)Cc2cccc3ccccc23)cc(OC)c1OC`, for which the IC50 was > 1 µM in assay [1]; > 2.5 µM at Lysine--tRNA ligase; > 2.5 µM at Proline--tRNA ligase; > 1 µM in assay [2]; > 1 µM in assay [3]; > 1 µM in assay [4]. Besides, in assay [5], the IC50 is > 1 µM.
Turning to `Oc1c(C(Nc2ccccn2)c2cccc(Oc3ccccc3)c2)ccc2cccnc12` (stereo not drawn), the IC50 in assay [1] was > 1 µM; at Lysine--tRNA ligase, > 2.5 µM; on Proline--tRNA ligase, > 2.5 µM; in assay [2] it was > 1 µM; in assay [3], > 1 µM; in assay [4] it was > 1 µM. The IC50 in assay [5] is > 1 µM.
Consider `COc1cc(-c2nc(-c3ccccc3)c(-c3ccccc3)[nH]2)cc(OC)c1O`, for which the IC50 in assay [1] was > 1 µM; on Lysine--tRNA ligase it was > 2.5 µM; at Proline--tRNA ligase, > 2.5 µM; in assay [2], > 1 µM; in assay [3] it was > 1 µM; in assay [4], > 1 µM. Also, the IC50 in assay [5] was > 1 µM.
On to `CCn1c2c(c(=N)c3c1CCC3)CCCC2`, for which the IC50 in assay [1] was > 1 µM; at Lysine--tRNA ligase, > 2.5 µM; on Proline--tRNA ligase it was > 2.5 µM; in assay [2], > 1 µM; in assay [3], > 1 µM; in assay [4], > 1 µM. Besides, the IC50 in assay [5] is > 1 µM.
Take `Cc1ccc2c(C)nc(Nc3nc(C)cc(-c4ccccc4)n3)nc2c1`: the IC50 in assay [1] is > 1 µM; on Lysine--tRNA ligase, > 2.5 µM; at Proline--tRNA ligase, > 2.5 µM; in assay [2] it was > 1 µM; in assay [3], > 1 µM; in assay [4], > 1 µM. For the same compound, the IC50 in assay [5] was > 1 µM.
Consider `CCOc1ccc(Nc2ccnc3cc(Cl)ccc23)cc1`, for which the IC50 in assay [1] is > 1 µM; on Lysine--tRNA ligase, > 2.5 µM; on Proline--tRNA ligase, > 2.5 µM; in assay [2] it was > 1 µM; in assay [3] it was > 1 µM; in assay [4], > 1 µM. In assay [5], the IC50 was > 1 µM.
